Measurements from the NIST ThermoML archive (doi:10.1021/acs.jced.7b00429).
± gives the expanded uncertainty stated by the source.

Experiments:
[1] = 100 kPa, Liquid; for viscosity: Falling or rolling sphere viscometry; for speed of sound: Frequency=3 MHz, Single path-length method; for mass density: Vibrating tube method
[2] = xn = mol fraction of the nth substance listed; conditions: 100 kPa, Liquid, x2 = 0; for viscosity: Falling or rolling sphere viscometry; for speed of sound: Frequency=3 MHz, Single path-length method; for mass density: Vibrating tube method

Molecule `CCn1cc[n+](C)c1.O=S(=O)([O-])C(F)(F)F` [1-ethyl-3-methylimidazolium trifluoromethanesulfonate] has a viscosity ([1]; 298.15 K) of 45.67 ± 14 mPa·s, a speed of sound ([1]; 298.15 K) of 1436 ± 10 m/s and a mass density ([1]; 298.15 K) of 1379.91 ± 2.5 kg/m3. The viscosity ([1]; 303.15 K) was 38.31 ± 12 mPa·s, the speed of sound ([1]; 303.15 K) was 1425.4 ± 10 m/s and the mass density ([1]; 303.15 K) was 1375.71 ± 2.5 kg/m3. The viscosity ([1]; 308.15 K) was 32.38 ± 9.7 mPa·s, the speed of sound ([1]; 308.15 K) was 1414.3 ± 10 m/s and the mass density ([1]; 308.15 K) was 1371.51 ± 2.5 kg/m3. It also gave a viscosity ([1]; 313.15 K) of 27.68 ± 8.3 mPa·s, a speed of sound ([1]; 313.15 K) of 1403 ± 10 m/s and a mass density ([1]; 313.15 K) of 1367.36 ± 2.5 kg/m3. It also gave a viscosity ([1]; 318.15 K) of 23.86 ± 7.2 mPa·s, a speed of sound ([1]; 318.15 K) of 1392.7 ± 10 m/s and a mass density ([1]; 318.15 K) of 1363.21 ± 2.5 kg/m3. For the same molecule, the viscosity ([1]; 323.15 K) was 20.75 ± 6.2 mPa·s, the speed of sound ([1]; 323.15 K) was 1381.7 ± 10 m/s and the mass density ([1]; 323.15 K) was 1359.07 ± 2.5 kg/m3.

`CC#N` [acetonitrile] showed a viscosity ([1]; 298.15 K) of 0.34 ± 0.1 mPa·s, a speed of sound ([1]; 298.15 K) of 1278.5 ± 10 m/s and a mass density ([1]; 298.15 K) of 776.71 ± 2 kg/m3. The viscosity ([1]; 303.15 K) was 0.32 ± 0.1 mPa·s, the speed of sound ([1]; 303.15 K) was 1258.4 ± 10 m/s and the mass density ([1]; 303.15 K) was 771.29 ± 2 kg/m3. It also gave a viscosity ([1]; 308.15 K) of 0.31 ± 0.09 mPa·s, a speed of sound ([1]; 308.15 K) of 1238.2 ± 10 m/s and a mass density ([1]; 308.15 K) of 765.83 ± 2 kg/m3. The viscosity ([1]; 313.15 K) was 0.3 ± 0.09 mPa·s, the speed of sound ([1]; 313.15 K) was 1218 ± 10 m/s and the mass density ([1]; 313.15 K) was 760.34 ± 2 kg/m3. For the same molecule, the viscosity ([1]; 318.15 K) was 0.29 ± 0.09 mPa·s, the speed of sound ([1]; 318.15 K) was 1197.9 ± 10 m/s and the mass density ([1]; 318.15 K) was 754.82 ± 2 kg/m3. The viscosity ([1]; 323.15 K) was 0.28 ± 0.08 mPa·s, the speed of sound ([1]; 323.15 K) was 1177.8 ± 10 m/s and the mass density ([1]; 323.15 K) was 749.25 ± 2 kg/m3.

`CC#N` [acetonitrile] + CCn1cc[n+](C)c1.O=S(=O)([O-])C(F)(F)F gave a viscosity ([2]; 298.15 K) of 0.34 ± 0.1 mPa·s, a speed of sound ([2]; 298.15 K) of 1278.5 ± 10 m/s and a mass density ([2]; 298.15 K) of 776.71 ± 2 kg/m3. The viscosity ([2]; 303.15 K) was 0.32 ± 0.1 mPa·s, the speed of sound ([2]; 303.15 K) was 1258.4 ± 10 m/s and the mass density ([2]; 303.15 K) was 771.29 ± 2 kg/m3. It also gave a viscosity ([2]; 308.15 K) of 0.31 ± 0.09 mPa·s, a speed of sound ([2]; 308.15 K) of 1238.2 ± 10 m/s and a mass density ([2]; 308.15 K) of 765.83 ± 2 kg/m3. The viscosity ([2]; 313.15 K) was 0.3 ± 0.09 mPa·s, the speed of sound ([2]; 313.15 K) was 1218 ± 10 m/s and the mass density ([2]; 313.15 K) was 760.34 ± 2 kg/m3. The viscosity ([2]; 318.15 K) was 0.29 ± 0.09 mPa·s, the speed of sound ([2]; 318.15 K) was 1197.9 ± 10 m/s and the mass density ([2]; 318.15 K) was 754.82 ± 2 kg/m3. For the same molecule, the viscosity ([2]; 323.15 K) was 0.28 ± 0.08 mPa·s, the speed of sound ([2]; 323.15 K) was 1177.8 ± 10 m/s and the mass density ([2]; 323.15 K) was 749.25 ± 2 kg/m3.
